In ChEMBL document CHEMBL1201862, “PubChem BioAssay data set” (2004):
Activity calls are given as the source filed them. No stated cut-off is given here; in the data, actives have a measured IC50 and inactives only a lower limit.

Target: Envelope glycoprotein gp160 (Human immunodeficiency virus 1, UniProt Q6QLK5)
Assay: inhibitors of HIV fusion peptide binding, primary screen, biochemical, uHTS, fluorescence dequenching (AID 1986)

Sequence of Envelope glycoprotein gp160 (Q6QLK5 whole entry, the tested form may be a part): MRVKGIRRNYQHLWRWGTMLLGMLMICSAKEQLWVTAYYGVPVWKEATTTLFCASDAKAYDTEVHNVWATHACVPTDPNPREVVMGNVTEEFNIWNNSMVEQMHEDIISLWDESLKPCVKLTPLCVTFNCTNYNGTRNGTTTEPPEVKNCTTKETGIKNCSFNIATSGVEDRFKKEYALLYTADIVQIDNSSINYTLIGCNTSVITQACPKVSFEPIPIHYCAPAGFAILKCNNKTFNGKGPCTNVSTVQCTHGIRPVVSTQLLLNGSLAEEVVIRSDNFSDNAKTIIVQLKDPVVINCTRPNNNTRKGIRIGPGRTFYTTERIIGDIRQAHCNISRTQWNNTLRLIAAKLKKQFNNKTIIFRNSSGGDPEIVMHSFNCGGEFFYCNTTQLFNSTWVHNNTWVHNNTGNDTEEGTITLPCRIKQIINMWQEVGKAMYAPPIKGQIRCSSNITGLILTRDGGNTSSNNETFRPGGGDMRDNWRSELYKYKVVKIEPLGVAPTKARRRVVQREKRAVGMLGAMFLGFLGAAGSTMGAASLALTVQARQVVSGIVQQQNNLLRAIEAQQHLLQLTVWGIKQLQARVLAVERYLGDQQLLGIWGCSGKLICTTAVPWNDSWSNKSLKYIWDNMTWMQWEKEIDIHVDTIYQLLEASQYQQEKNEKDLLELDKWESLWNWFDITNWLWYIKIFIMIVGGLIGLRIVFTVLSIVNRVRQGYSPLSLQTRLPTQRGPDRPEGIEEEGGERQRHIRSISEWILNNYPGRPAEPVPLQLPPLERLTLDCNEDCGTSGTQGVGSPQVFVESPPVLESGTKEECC

O=C(O)CN1C(=O)/C(=C\c2cccc(OCc3ccc(Cl)cc3Cl)c2)SC1=S
IC50: 13.1 µM (active)

O=C(O)c1ccccc1NS(=O)(=O)c1ccc(NNC(=S)Nc2ccc(OC(F)F)cc2)c([N+](=O)[O-])c1
IC50: 8.21 µM (active)
